In patent US20210393807A1, “PHOTOACOUSTIC VOLTAGE-SENSITIVE DYES FOR IN VIVO IMAGING” (The Johns Hopkins University, priority 2016, published 2021):
Values joined by “and” are separate entries in the source; they are usually repeats but may differ in a detail not shown here. Equal values may be shown once. “Also recorded” adds a separate entry of the source.

Legend:
[1] = Spectrophotometric measurements of near-infrared VSD in lipid vesicle phantom; format: physicochemical
Text: 2.5.1 Photoacoustic imaging setup. For the recording of electrophysiological brain activities in vivo, an ultrasound research system was utilized that consisted of ultrasound array transducer (L 14-5/38) connected to a real-time data acquisition system (SonixDAQ, Ultrasonix Medical Corp., Canada). To induce the PA signals, pulsed laser light was generated by a second-harmonic (532 nm) Nd:YAG laser pumping an optical parametric oscillator (OPO) system (Phocus Inline, Opotek Inc., USA). The tunable range of the laser system was 690-900 nm and the maximum pulse repetition frequency was 20 Hz. The laser pulse was delivered into the probe through bifurcated fiber optic bundles, each 40 mm long and 0.88 mm wide. The PA probe was located at around the Interaural 11.2 mm and Bregma 2.2 mm to obtain the cross-section of motor cortexes (FIG. 15). The energy density at skin surface was only 3.5 mJ/cm^2, which is far below the ANSI safety limit restricting the 5-ns pulsed laser exposure at 700-1400 nm of wavelength range to be lower than 20 mJ/cm^2. 2.5.2 Lipid vesicle phantom preparation for VSD validation. The lipid vesicle model was prepared using the same procedure as in Zhang et al (Zhang, et al., 2017); 25-mg soybean phosphatidyl-choline (type II) suspended in 1 mL of K^+ buffer was used as the lipid vesicles. This vesicle contains 100 mM K2SO4 and 20 mM HEPES. The suspension was vortexed for 10 min, and followed by 60 min of sonication within bath-type sonicator to yield a translucent vesicle suspension. A Na^+ buffer was also prepared, which contains 100 mM Na2SO4 and 20 mM HEPES. […]
Otherwise, 2.5 μL of 1 mM gramicidin, a nonspecific monovalent cation ionophore, enables Na+ cations to move from outside to inside of vesicle membranes to short circuit the membrane potential (depolarized state). From these controls, our near-infrared VSD positively charged can move in and out through the vesicle membrane, leading to the change in fluorescence quenching depending on their aggregation status.

[2] = system: blood-brain barrier (BBB); experiment: PA intensity monitoring of VSD penetration through BBB with regadenoson; format: in vivo, rat; details: brain tissue region; intravenous; last 2 min (8-10 min), 480 time points
Method: (Carman, et al., 2011) For preliminary studies, the dosage and IV administration method indicated by the manufacturer was utilized. A volume of 150 μl of the standard concentration of 0.08 mg/1 ml was given to each animal regardless of the weight, followed by 150 μl flush of 0.9% sodium chloride for injection. VSD penetration was expected during the Lexiscan's biological half-life, i.e., 2-4 minutes, thereby the experimental protocol was designed based on the pharmacological assumption. In vivo experimental protocol. The in vivo protocols were respectively designed for three experimental groups: negative control, control, and seizure groups. […] Note that each data acquisition was performed for 10 min to cover the biological half-life of Lexiscan (2-3 min). Each dosing protocol of Lexiscan and VSD was as follows: through the jugular vein catheter port located in the neck, 150 μl of Lexiscan 0.4 mg/5 ml concentration was injected, and 300 μl of VSD was subsequently administrated at 0.1 mg/ml concentration, followed by 150 μl of saline solution flush. […] The negative control group was designed to validate the incapability of Lexiscan and PTZ to generate any bias on PA neural activity detection by excluding VSD administration. […]

[3] = Photoacoustic measurement and quantum yield estimation of near-infrared VSD in lipid vesicle phantom; format: physicochemical; details: for PA intensity decrease in depolarization state compared to polarized state (pure VSD contrast): 790 nm
Text: (§1) 2.5.1 Photoacoustic imaging setup. For the recording of electrophysiological brain activities in vivo, an ultrasound research system was utilized that consisted of ultrasound array transducer (L 14-5/38) connected to a real-time data acquisition system (SonixDAQ, Ultrasonix Medical Corp., Canada). To induce the PA signals, pulsed laser light was generated by a second-harmonic (532 nm) Nd:YAG laser pumping an optical parametric oscillator (OPO) system (Phocus Inline, Opotek Inc., USA). The tunable range of the laser system was 690-900 nm and the maximum pulse repetition frequency was 20 Hz. The laser pulse was delivered into the probe through bifurcated fiber optic bundles, each 40 mm long and 0.88 mm wide. The PA probe was located at around the Interaural 11.2 mm and Bregma 2.2 mm to obtain the cross-section of motor cortexes (FIG. 15). The energy density at skin surface was only 3.5 mJ/cm^2, which is far below the ANSI safety limit restricting the 5-ns pulsed laser exposure at 700-1400 nm of wavelength range to be lower than 20 mJ/cm^2. 2.5.2 Lipid vesicle phantom preparation for VSD validation. The lipid vesicle model was prepared using the same procedure as in Zhang et al (Zhang, et al., 2017); 25-mg soybean phosphatidyl-choline (type II) suspended in 1 mL of K^+ buffer was used as the lipid vesicles. This vesicle contains 100 mM K2SO4 and 20 mM HEPES. The suspension was vortexed for 10 min, and followed by 60 min of sonication within bath-type sonicator to yield a translucent vesicle suspension. A Na^+ buffer was also prepared, which contains 100 mM Na2SO4 and 20 mM HEPES. Afterwards, approximately a 100:1 K^+ gradient across vesicle membrane was established with 10 μL of lipid vesicle suspension added to 1 mL of Na^+ buffer. In the vesicle phantom prepared, negative membrane potential (polarized state) was mimicked by adding 2.5 μL of 10 μM valinomycin—a K^+ specific ionophore, thereby K^+ ions were transported from inside to outside of vesicle membranes.
Otherwise, 2.5 μL of 1 mM gramicidin, a nonspecific monovalent cation ionophore, enables Na+ cations to move from outside to inside of vesicle membranes to short circuit the membrane potential (depolarized state).
2.5.3 Estimation of quantum yield change of VSD. The quantum yields of the near-infrared VSD in depolarized states […] were estimated based on the Eq. 8 and 9 disclosed previously. […] The quantum yield in the polarized state (ΦF) were also estimated by compensating for the absorbance and fluorescence emission changes when depolarized: ΦF=(CF/Cabs)Φ′F.

rat motor cortex [4] = experiment: VSD toxicity study, EEG during direct cortical application via cranial window; format: in vivo
Method: 2.5.10 Validation of protocol for using sub-dermal EEG electrodes to determine toxic CNS effects of VSDs. VSDs effect on EEG signal from sub-dermal scalp electrodes was investigated in a pilot by direct cortical applications of increasing concentrations of VSDs in anesthetized rat with limited craniotomies while recording synchronous vEEGs (FIG. 21).
Increasing concentrations of VSD were tested in the same rat at temporally spaced time-points. Rats were anesthetized with IP injection to ketamine/xylazine and a cranial window made over the right motor cortex. After recording a baseline EEG in the rat for 10-min duration with the craniotomy, the follow-on EEG recording continued to record EEG following application of increasing concentrations of vehicle alone and VSD+ vehicle for the same duration of EEG recordings (i.e., 10 min) allowing comparisons of EEG responses to each increasing gradient of VSD on cortical activity as compared to baseline EEG signature in the same rat.

rat motor cortex [5] = experiment: EEG validation of seizure activity in the in vivo protocol; details: IV VSD treatment; anesthetized rats
Method: 2.5.9 EEG validation of neural seizure activity. To obtain the EEG records of electrical spike discharges that originated from motor cortex shown in FIG. 14, sub-dermal scalp EEG recording electrodes were located at the corresponding locations on motor cortex indicated by Xs in FIG. 21A, the schematic of the rat cranium (three electrodes, 1 recording and 1 reference over motor cortex, 1 ground electrode over rostrum). The EEG signal at motor cortex was recorded with the identical preparation procedures in PA imaging including animal preparation, administration of IR780, Lexiscan, and PTZ, time duration for recording, and interval between sequences in the protocol. Data acquisition was done using Sirenia software (Pinnacle Technologies Inc., Kansas, USA) with synchronous video capture. […] The files were stored in .EDF format and scored manually for protocol stages using real time annotations added to the recording during the experiments.

rat brain motor cortex = experiment: Transcranial PA imaging of chemoconvulsant (PTZ) seizure neural activity; format: in vivo, Sprague Dawley rats; details: for neural activity index (fractional change vs baseline): baseline 1.00±0.20
Text: as §1
2.5.4 Animal preparation. For the proposed in vivo experiments. […]

[6] = Photoacoustic characterization of PA-VSD in lipid vesicle phantom; format: physicochemical; details: 800 nm; for fractional PA intensity change upon polarization: 20 samples
Method: (§2) Lipid vesicles were prepared from 25-mg soybean phosphatidylcholine (type II) suspended in 1 mL of K^+ buffer, which contains 100 mM K2SO4 and 20 mM HEPES. This suspension was vortexed for 10 min and sonicated in bath-type sonicator for 60 min, yielding a translucent vesicle suspension. A Na^+ buffer containing 100 mM Na2SO4 and 20 mM HEPES was prepared. During experiments, 10 μL of vesicle suspension was added to 1 mL of Na^+ buffer, resulting in an approximately 100:1 K^+ gradient across vesicle membrane. VSD was added to this suspension. When 2.5 μL of 10 μM valinomycin—a K^+ specific ionophore—was added, K^+ ions were transported from inside to outside of vesicle membranes, resulting in a negative membrane potential. This negative potential drives the positively charged VSDs into the vesicles, which causes aggregation of dyes and quenching of fluorescence. Subsequent addition of 2.5 μL of 1 mM gramicidin, a nonspecific monovalent cation ionophore, allows Na^+ cations to move from outside to inside of vesicle membranes to short circuit the membrane potential.
The PA sensing system was employed for the characterization of the synthesized PA-VSD (FIG. 3); Q-switched Nd:YAG laser integrated with an optical parametric oscillator (Phocus Inline and MagicPrism, Opotek Inc.) was used for PA signal generation. With the tunability of the laser system, the spectral responses for near-infrared wavelengths (i.e., 700 to 850 nm at 10-nm interval) were scanned with 20-Hz pulsed repetition frequency and […]. The light was delivered through an optical fiber bundle with a 9-mm round shaped output, which was aligned with an ultrasound receiver. The PAVSD in the lipid vesicles suspension was loaded into transparent tubes with 1.27-mm diameter (AAQ04133, Tygon®, SaintGobain Corp.), which were located at around 30 mm depth in the water tank. Note that the temperature of the water was consistently maintained at 22° C. during the experiments. A 10-MHz linear ultrasound probe (L 14-5/38, Ultrasonix Corp.) was used for PA-VSD sensing in a practical circumstance with a limited bandwidth (i.e., 75%-6 dB fractional bandwidth). Similarly, a hydrophone with wide flat bandwidth from 250 kHz to 20 MHz (HGL-1000, Onda Corp., California) was used to collect single line radio-frequency (RF) PA pressure signal. Twenty sets of PA data were collected, in which 19 of them were collected using the linear array transducer, and the other was through the hydrophone, and the average and standard deviation values were calculated. The PA signals acquired at the depth of target were used to form an averaged RF signal, which is further processed to present PA intensity at each optical wavelength; this permitted an accurate correlation with the spectrophotometric measurements. For the imaging setup, one set of data was obtained using the linear array transducer from 9 μM PA-VSD at 800-nm optical wavelength, and the difference between the resting and polarized states was analyzed.

[7] = Spectrophoto/fluorometric characterization of PA-VSD in lipid vesicle suspension (valinomycin/gramicidin); format: physicochemical; details: for fluorescence quenching (fractional change in fluorescence) upon valinomycin polarization: 9 μM concentration, emission 825 nm
Method: as §2, with “This suspension was vortexed for 10 min and sonicated in bath-type sonicator for 60 min, yielding a translucent vesicle suspension.” left out
A combined spectrophoto/fluorometer system (Spectramax i3x, Molecular Devices) was used to measure both fluorescence and absorbance of the PA-VSD with 1, 3, 6, and 9 μM concentrations. For fluorescence, the measurement was conducted for the spectral range from 750 to 850 nm at 10-nm increment, and the absorbance was measured in the range from 600 to 900 nm at 5-nm increments. Note that 720-nm wavelength was used for excitation during spectrofluorometry of the PA-VSD.

[8] = in vivo; cited from earlier work
[9] = estimated with theoretical model
[10] = direct cortical application, 100×

In the case of `CCCN1/C(=C/C=C2\CCCC(/C=C/C3=[N+](CCC)c4ccccc4C3(C)C)=C2Cl)C(C)(C)c2ccccc21.[I-]` [IR780, IR780 perchlorate], the peak absorbance [1] is reported as 790 nm, the “absorbance change between polarized and depolarized states” value ([1]; valinomycin and gramicidin) is reported as 3% and the “fluorescence emission change between polarized and depolarized states” value ([1]; valinomycin and gramicidin) is reported as 40.1%. For the same compound, the “fractional increase of PA intensity from the natural condition (VSD−, Lexiscan−)” value [2] was 1.09±0.09, the “PA intensity decrease in depolarization state compared to polarized state (pure VSD contrast)” value [3] was 12.3±6.7% and the “PA intensity decrease in depolarization state compared to polarized state (pure VSD contrast)” value ([3]; listed as VSD) was 12.3% and 12.22%. The “quantum yield in the depolarized state” value [3, 9] was 0.28±0.10, the “quantum yield in the polarized state” value [3, 9] was 0.17±0.06 and the “course of EEG suppression” value (rat motor cortex [4]; 100×, over the 10-min recording period) was “recovered to baseline”. The “EEG effect of 100× solution” value (rat motor cortex [4]; [10]) was “significant EEG background suppression”, the “rats with significant EEG background suppression” value (rat motor cortex [4]; [10]) was 4/6 and the “effect on baseline EEG” value (rat motor cortex [4]; direct cortical application, lower concentrations, 10-min recordings) was “no effect in altering the baseline EEG; also recorded: remained unaltered”. The “PTZ evolution of status on EEG” value (rat motor cortex [5]) was “did not alter”, the “neural activity index (fractional change vs baseline)” value (rat brain motor cortex; control group (VSD+Lexiscan, no PTZ)) was 0.93±0.25 and the “neural activity index (fractional change vs baseline)” value (rat brain motor cortex; seizure group (VSD+Lexiscan+PTZ), motor cortex, 790 nm) was 2.40±0.42.
In the case of `CCN1/C(=C/C=C/C=C/C=C/C2=[N+](CC)c3ccc4ccccc4c3C2(C)C)C(C)(C)c2c1ccc1ccccc21.[I-]` [PAVSD800-2], the “fractional PA intensity change upon polarization” value ([6]; 1 μM) is reported as 17%, the “fractional PA intensity change upon polarization” value ([6]; 3 μM) is reported as 24% and the “fractional PA intensity change upon polarization” value ([6]; 6 μM) is reported as 17%. For the same compound, the “PA intensity increase in the polarized state” value ([6]; 6 μM, typical experiment) was 14%, the “fractional PA intensity change upon polarization” value ([6]; 9 μM) was 17% and the “fractional change of PA signals” value ([6]; 9 μM, dataset chosen for reconstructed PA images) was 22.72%. The “fluorescence quenching (fractional change in fluorescence) upon valinomycin polarization” value [7] was “up to 49%”, the “fluorescence quenching (fractional change in fluorescence) upon valinomycin polarization” value ([7]; listed as PA-VSD) was 49% and the fluorescence emission ([7]; in the presence of lipid membranes) was 828 nm.
In the case of `CNC(=O)c1cnn(-c2nc(N)c3ncn([C@@H]4O[C@H](CO)[C@@H](O)[C@H]4O)c3n2)c1` [Lexiscan, regadenoson], the biological half-life [8] is given as 2-4 min and 2-3 min and the neural activity index (rat brain motor cortex; negative control group without VSD, Lexiscan+/PTZ−) is given as 0.92±0.23.
